Results as given in patent US20210309631A1, “SALT OF CYCLOHEXANE DERIVATIVE” (priority 2018, published 2021).
Like-named read-outs stand apart in the source and are kept apart here.

Key:
[1] = Plasma pharmacokinetics in SD rats after single intragastric administration (Example 7); format: in vivo; conditions: intragastric 1 mg/kg, Mean ± SD, non-compartmental model, listed as free base
Method: The in vivo absorption process and characteristics of the free base and four salts thereof (sulfate, hydrochloride salt, phosphate, maleate) of compound (I) in rats were studied. The pharmacokinetics of a single intragastric administration of 1 mg/kg of a compound of Formula I and four salts thereof (calculated by free base concentration in salt form) were studied in SD rats.
SD rats were given a single intragastric administration of 1 mg/kg free base of Example 1 and four salts thereof (including hydrochloride salt from Example 2, sulfate from Example 3, phosphate from Example 4 and maleate from Example 5). There were 4 male rats in each group. The concentration of the compound of Formula I in plasma was determined, and the pharmacokinetic parameters were calculated according to the concentration-time curve.

[2] = Hygroscopicity (DVS) experiment, 25° C./80% relative humidity; format: physicochemical; conditions: DVS, 25° C./80% relative humidity; listed as Example 1 free base
Method: Dynamic vapor sorption curves were collected on a DVS Intrinsic by SMS (Surface Measurement Systems).
20 mg sample of the crystal forms of the Examples and Comparative Examples are placed in the environment of 25° C./80% relative humidity for a dynamic vapor sorption (DVS) test, and the test results […] are shown in Table 5.

[3] = In vivo individual difference analysis: individual plasma concentration versus time in rats (Example 8); parameters: species or system SD rats; conditions: intragastric 1 mg/kg; for Plasma Concentrations of Compound of Formula I: listed as Compound of Formula I; for concentration at 0 h: 0 h after administration
Method: Compound of Formula I and salts thereof (sulfate, hydrochloride salt, phosphate, maleate), supplied by Shanghai Jingxin Biopharmaceutical Co., Ltd. • Strain: SD rats; Gender: male; Body weight: about 250 grams; Source: shanghai Jiesijie Experimental Animal Co., Ltd Route: single intragastric administration; Capacity: measured in 10 mL/kg body weight Preparation: weighing appropriate amount of the free base or salt of the compound of Formula I, adding a small amount of 0.5% CMC-Na to grind, adding 0.5% CMC-Na to the volume. The concentration is measured as the base. 20 SD rats were divided into 5 groups with 4 rats in each group, fasted for 12 h and drank freely before administration. […] The blood was anticoagulated with 1% heparin, the plasma was separated by 8000 rpm centrifugation for 4 min and stored at -40° C. for testing. LC-MS/MS Method. Pharmacokinetic parameters after administration in rats were calculated using a non-compartmental model of DAS 2.0 software.

solubility in water = format: physicochemical; conditions: listed as crystal Form A of the free base

CN(C)C(=O)N[C@H]1CC[C@H](CCN2CCN(c3cccc4ccsc34)CC2)CC1 [Example 1, N′-[trans-4-[2-[7-(benzo[b]thiophene)-7-piperazinyl]ethyl]cyclohexyl]-N,N-dimethylurea]
MRT0-∞ [1]: 3.63 ± 0.306 h | Tmax [1]: 0.583 ± 0.289 h | t1/2 [1]: 2.78 ± 0.463 h | Hygroscopicity [2]: Almost no | Vapor sorption [2]: 0.16% | Plasma Concentrations of Compound of Formula I ([3]; 5 min after administration, Mean ± SD): 3.40 ± 5.74 ng/mL | Plasma Concentrations of Compound of Formula I ([3]; 5 min after administration, rat 1♂): 0.419 ng/mL | Plasma Concentrations of Compound of Formula I ([3]; 5 min after administration, rat 2♂): 0.624 ng/mL | Plasma Concentrations of Compound of Formula I ([3]; 5 min after administration, rat 3♂): 12.0 ng/mL | Plasma Concentrations of Compound of Formula I ([3]; 5 min after administration, rat 4♂): 0.543 ng/mL | Plasma Concentrations of Compound of Formula I ([3]; 0.167 h after administration, rat 1♂): 6.35 ng/mL | Plasma Concentrations of Compound of Formula I ([3]; 0.167 h after administration, rat 3♂): 25.8 ng/mL | Plasma Concentrations of Compound of Formula I ([3]; 0.333 h after administration, rat 1♂): 26.8 ng/mL | Plasma Concentrations of Compound of Formula I ([3]; 0.333 h after administration, rat 2♂): 33.0 ng/mL | Plasma Concentrations of Compound of Formula I ([3]; 0.333 h after administration, rat 3♂): 51.8 ng/mL | Plasma Concentrations of Compound of Formula I ([3]; 0.5 h after administration, rat 2♂): 37.2 ng/mL | Plasma Concentrations of Compound of Formula I ([3]; 0.5 h after administration, rat 3♂): 51.6 ng/mL | Plasma Concentrations of Compound of Formula I ([3]; 1 h after administration, rat 3♂): 45.6 ng/mL | Plasma Concentrations of Compound of Formula I ([3]; 2 h after administration, rat 3♂): 23.9 ng/mL | Plasma Concentrations of Compound of Formula I ([3]; 2 h after administration, rat 4♂): 40.3 ng/mL | Plasma Concentrations of Compound of Formula I ([3]; 4 h after administration, rat 2♂): 6.30 ng/mL | Plasma Concentrations of Compound of Formula I ([3]; 4 h after administration, rat 3♂): 7.95 ng/mL | Plasma Concentrations of Compound of Formula I ([3]; 4 h after administration, rat 4♂): 16.0 ng/mL | Plasma Concentrations of Compound of Formula I ([3]; 6 h after administration, rat 2♂): 1.94 ng/mL | Plasma Concentrations of Compound of Formula I ([3]; 6 h after administration, rat 4♂): 8.91 ng/mL | Plasma Concentrations of Compound of Formula I ([3]; 9 h after administration, rat 2♂): 0.95 ng/mL | Plasma Concentrations of Compound of Formula I ([3]; 9 h after administration, rat 4♂): 3.30 ng/mL | Plasma Concentrations of Compound of Formula I ([3]; 12 h after administration, rat 1♂): 0.372 ng/mL | Plasma Concentrations of Compound of Formula I ([3]; 12 h after administration, rat 2♂): 0.578 ng/mL | Plasma Concentrations of Compound of Formula I ([3]; 12 h after administration, rat 3♂): 0.682 ng/mL | Plasma Concentrations of Compound of Formula I ([3]; 12 h after administration, rat 4♂): 1.66 ng/mL | Plasma Concentrations of Compound of Formula I ([3]; 24 h after administration, Mean ± SD): 0.497 ± 0.273 ng/mL | Plasma Concentrations of Compound of Formula I ([3]; 24 h after administration, rat 1♂): 0.487 ng/mL | Plasma Concentrations of Compound of Formula I ([3]; 24 h after administration, rat 2♂): 0.308 ng/mL | Plasma Concentrations of Compound of Formula I ([3]; 24 h after administration, rat 3♂): 0.886 ng/mL | Plasma Concentrations of Compound of Formula I ([3]; 24 h after administration, rat 4♂): 0.306 ng/mL | concentration at 0 h ([3]; male, SD, rat, plasma, oral, 1 mg/kg, Mean ± SD, read-out: Plasma Concentrations of Compound of Formula I): 0 ng/mL | concentration at 0 h ([3]; male, SD, rat, plasma, oral, 1 mg/kg, rat 1♂, read-out: Plasma Concentrations of Compound of Formula I): 0 ng/mL | concentration at 0 h ([3]; male, SD, rat, plasma, oral, 1 mg/kg, rat 2♂, read-out: Plasma Concentrations of Compound of Formula I): 0 ng/mL | concentration at 0 h ([3]; male, SD, rat, plasma, oral, 1 mg/kg, rat 3♂, read-out: Plasma Concentrations of Compound of Formula I): 0 ng/mL | concentration at 0 h ([3]; male, SD, rat, plasma, oral, 1 mg/kg, rat 4♂, read-out: Plasma Concentrations of Compound of Formula I): 0 ng/mL | concentration at 0.167 h ([3]; male, SD, rat, plasma, oral, 1 mg/kg, 0.167 h after administration, Mean ± SD, read-out: Plasma Concentrations of Compound of Formula I): 14.9 ± 8.3 ng/mL | concentration at 0.167 h ([3]; male, SD, rat, plasma, oral, 1 mg/kg, 0.167 h after administration, rat 2♂, read-out: Plasma Concentrations of Compound of Formula I): 11.3 ng/mL | concentration at 0.167 h ([3]; male, SD, rat, plasma, oral, 1 mg/kg, 0.167 h after administration, rat 4♂, read-out: Plasma Concentrations of Compound of Formula I): 16.3 ng/mL | concentration at 0.333 h ([3]; male, SD, rat, plasma, oral, 1 mg/kg, 0.333 h after administration, Mean ± SD, read-out: Plasma Concentrations of Compound of Formula I): 42.2 ± 14.5 ng/mL | concentration at 0.333 h ([3]; male, SD, rat, plasma, oral, 1 mg/kg, 0.333 h after administration, rat 4♂, read-out: Plasma Concentrations of Compound of Formula I): 57 ng/mL | concentration at 0.5 h ([3]; male, SD, rat, plasma, oral, 1 mg/kg, 0.5 h after administration, Mean ± SD, read-out: Plasma Concentrations of Compound of Formula I): 46.4 ± 13.7 ng/mL | concentration at 0.5 h ([3]; male, SD, rat, plasma, oral, 1 mg/kg, 0.5 h after administration, rat 1♂, read-out: Plasma Concentrations of Compound of Formula I): 33.6 ng/mL | concentration at 0.5 h ([3]; male, SD, rat, plasma, oral, 1 mg/kg, 0.5 h after administration, rat 4♂, read-out: Plasma Concentrations of Compound of Formula I): 63.3 ng/mL | concentration at 1 h ([3]; male, SD, rat, plasma, oral, 1 mg/kg, 1 h after administration, Mean ± SD, read-out: Plasma Concentrations of Compound of Formula I): 43.7 ± 14.8 ng/mL | concentration at 1 h ([3]; male, SD, rat, plasma, oral, 1 mg/kg, 1 h after administration, rat 1♂, read-out: Plasma Concentrations of Compound of Formula I): 29.4 ng/mL | concentration at 1 h ([3]; male, SD, rat, plasma, oral, 1 mg/kg, 1 h after administration, rat 2♂, read-out: Plasma Concentrations of Compound of Formula I): 36.3 ng/mL | concentration at 1 h ([3]; male, SD, rat, plasma, oral, 1 mg/kg, 1 h after administration, rat 4♂, read-out: Plasma Concentrations of Compound of Formula I): 63.6 ng/mL | concentration at 2 h ([3]; male, SD, rat, plasma, oral, 1 mg/kg, 2 h after administration, Mean ± SD, read-out: Plasma Concentrations of Compound of Formula I): 25.1 ± 10.6 ng/mL | concentration at 2 h ([3]; male, SD, rat, plasma, oral, 1 mg/kg, 2 h after administration, rat 1♂, read-out: Plasma Concentrations of Compound of Formula I): 16.8 ng/mL | concentration at 2 h ([3]; male, SD, rat, plasma, oral, 1 mg/kg, 2 h after administration, rat 2♂, read-out: Plasma Concentrations of Compound of Formula I): 19.2 ng/mL | concentration at 4 h ([3]; male, SD, rat, plasma, oral, 1 mg/kg, 4 h after administration, Mean ± SD, read-out: Plasma Concentrations of Compound of Formula I): 8.91 ± 4.85 ng/mL | concentration at 4 h ([3]; male, SD, rat, plasma, oral, 1 mg/kg, 4 h after administration, rat 1♂, read-out: Plasma Concentrations of Compound of Formula I): 5.38 ng/mL | concentration at 6 h ([3]; male, SD, rat, plasma, oral, 1 mg/kg, 6 h after administration, Mean ± SD, read-out: Plasma Concentrations of Compound of Formula I): 3.99 ± 3.32 ng/mL | concentration at 6 h ([3]; male, SD, rat, plasma, oral, 1 mg/kg, 6 h after administration, rat 1♂, read-out: Plasma Concentrations of Compound of Formula I): 2.03 ng/mL | concentration at 6 h ([3]; male, SD, rat, plasma, oral, 1 mg/kg, 6 h after administration, rat 3♂, read-out: Plasma Concentrations of Compound of Formula I): 3.06 ng/mL | concentration at 9 h ([3]; male, SD, rat, plasma, oral, 1 mg/kg, 9 h after administration, Mean ± SD, read-out: Plasma Concentrations of Compound of Formula I): 1.65 ± 1.13 ng/mL | concentration at 9 h ([3]; male, SD, rat, plasma, oral, 1 mg/kg, 9 h after administration, rat 1♂, read-out: Plasma Concentrations of Compound of Formula I): 0.876 ng/mL | concentration at 9 h ([3]; male, SD, rat, plasma, oral, 1 mg/kg, 9 h after administration, rat 3♂, read-out: Plasma Concentrations of Compound of Formula I): 1.47 ng/mL | concentration at 12 h ([3]; male, SD, rat, plasma, oral, 1 mg/kg, 12 h after administration, Mean ± SD, read-out: Plasma Concentrations of Compound of Formula I): 0.823 ± 0.573 ng/mL | solubility in water (solubility in water): about 0.031 mg/ml
